The text below walks through data of patent publication US20090226398A1, “ANTI-VIRAL COMPOUNDS, COMPOSITIONS, AND METHODS OF USE” (Genelabs Technologies, Inc., priority 2008, published 2009).

For this test, the system named is HCV replication. The test can be described thus: Replicon Assay (Huh-lucubineo-ET cells, luciferase readout). In kind it is cell-based. Conditions: Hepatitis C virus; ET (Huh-lucubineo-ET) HCV replicon cell line; luciferase activity 48-72 hours after compound addition; 6 dilutions. The protocol:
A cell line, ET (Huh-lucubineo-ET) was used for screening of compounds of the present invention for inhibition of HCV replication. The ET cell line was stably transfected with RNA transcripts harboring a I389luc-ubi-neo/NS3-3′/ET; replicon with firefly luciferase-ubiquitin-neomycin phosphotransferase fusion protein and EMCV-IRES driven NS3-5B polyprotein containing the cell culture adaptive mutations (E1202G; T1280I; K1846T) (Krieger at al, 2001 and unpublished). The ET cells were grown in DMEM, supplemented with 10% fetal calf serum, 2 mM Glutamine, Penicillin (100 IU/mL)/Streptomycin (100 μg/mL), 1× nonessential amino acids, and 250 μg/mL G418 (“Geneticin”). They were all available through Life Technologies (Bethesda, Md.). The cells were plated at 0.5−1.0×10^4 cells/well in the 96 well plates and incubated for 24 hrs before adding the test compounds. The compounds were then added to the cells to achieve a final concentration of 5 or 50 μM. Luciferase activity was measured 48-72 hours later by adding a lysis buffer and the substrate (Catalog number Glo-lysis buffer E2661 and Bright-Glo luciferase system E2620 Promega, Madison, Wis.). Cells should not be too confluent during the assay. Percent inhibition of replication was plotted relative to no compound control. For EC50 (effective concentration at which 50% of the maximum inhibition is observed) determinations, 6 dilutions of each compound were used. Compounds were typically diluted 3 fold to span a concentration range of 250 fold. EC50 and similarly TC50 values were calculated by fitting % inhibition at each concentration to the following equation:
% inhibition=100%/[(EC50/[I])^b+1]
where b is Hill's coefficient.

With `COc1ccc(-c2ccc(Cn3cc4nc(-c5cccc(F)c5F)nc-4cn3)c(-c3ccc(OC)cc3C(F)(F)F)n2)c(C(F)(F)F)c1` [Compound 252, 5-[2,6-Bis-(4-methoxy-2-trifluoromethyl-phenyl)-pyridin-3-ylmethyl]-2-(2,3-difluoro-phenyl)-5H-imidazo[4,5-d]pyridazine], the half-maximal effective concentration (EC50) – broadly, the concentration giving half of the maximal effect – was 2640 nM.
As for `Fc1cccc(-c2nc3cnn(Cc4ccc(-c5ccc(C(F)(F)F)cc5C(F)(F)F)nn4)cc-3n2)c1F` [Compound 104, 5-[6-(2,4-Bis-trifluoromethyl-phenyl)-pyridazin-3-ylmethyl]-2-(2,3-difluoro-phenyl)-5H-imidazo[4,5-d]pyridazine], the concentration for a half-maximal effect (EC50) was 60 nM.
In the case of `COc1ccc(-c2ccc(Cn3cc4nc(-c5cccc(F)c5F)nc-4cn3)cc2F)c(C(F)(F)F)c1` [Compound 261, 2-(2,3-Difluoro-phenyl)-5-(2-fluoro-4′-methoxy-2′-trifluoromethyl-biphenyl-4-ylmethyl)-5H-imidazo[4,5-d]pyridazine], the 50% effective concentration (EC50) came out at 50 nM.
As to `Fc1cccc(-c2nc3cnn(Cc4ccc(-c5ccc(C(F)(F)F)cc5)cn4)cc-3n2)c1F` [Compound 246, 2-(2,3-Difluoro-phenyl)-5-[5-(4-trifluoromethyl-phenyl)-pyridin-2-ylmethyl]-5H-imidazo[4,5-d]pyridazine], the EC50 is at least 50000 nM.
`Cn1ccc2cc(-c3ccc(Cn4cc5nc(-c6cccc(F)c6F)nc-5cn4)nn3)ccc21` [Compound 216, 2-(2,3-Difluoro-phenyl)-5-[6-(1-methyl-1H-indol-5-yl)-pyridazin-3-ylmethyl]-5H-imidazo[4,5-d]pyridazine] displayed an EC50 of at least 50000 nM.
In the case of `CC(C)(C)OCc1ccc(-c2ccc(Cn3cc4nc(-c5cccc(F)c5F)nc-4cn3)nn2)cc1` [Compound 214, 5-[6-(4-tert-Butoxymethyl-phenyl)-pyridazin-3-ylmethyl]-2-(2,3-difluoro-phenyl)-5H-imidazo[4,5-d]pyridazine], the EC50 was 47400 nM.
The figure for `CCCCc1ccc(-c2ccc(Cn3cc4nc(-c5cccc(F)c5F)nc-4cn3)cn2)cc1C(F)(F)F` [Compound 347, 5-[6-(4-Butyl-3-trifluoromethyl-phenyl)-pyridin-3-ylmethyl]-2-(2,3-difluoro-phenyl)-5H-imidazo[4,5-d]pyridazine] is 2590 nM; for `Fc1ccccc1-c1nc2cnn(Cc3ccc(Cl)cc3)cc-2n1` [Compound 102, 5-(4-Chloro-benzyl)-2-(2-fluoro-phenyl)-5H-imidazo[4,5-d]pyridazine] it is at least 50000 nM; for `COc1ccc(-c2ccc(Cn3cc4nc(-c5cccc(F)c5F)nc-4cn3)nc2[N+](=O)[O-])c(C(F)(F)F)c1` [Compound 310, 2-(2,3-Difluoro-phenyl)-5-[5-(4-methoxy-2-trifluoromethyl-phenyl)-6-nitro-pyridin-2-ylmethyl]-5H-imidazo[4,5-d]pyridazine] it is 762 nM.
Compound `Fc1cccc(-c2nc3cnn(Cc4cccc(Oc5ccccc5)c4)cc-3n2)c1F` [Compound 279, 2-(2,3-Difluoro-phenyl)-5-(3-phenoxy-benzyl)-5H-imidazo[4,5-d]pyridazine] yielded an EC50 of 20000 nM.
With `Fc1cccc(-c2nc3cnn(Cc4ccc(-c5ccc(C(F)(F)F)cc5C(F)(F)F)cc4)cc-3n2)c1F` [Compound 244, 5-(2′,4′-Bis-trifluoromethyl-biphenyl-4-ylmethyl)-2-(2,3-difluoro-phenyl)-5H-imidazo[4,5-d]pyridazine], the EC50 was 9 nM.
`Fc1ccccc1-c1nc2cnn(Cc3ccc(OC(F)(F)F)cc3)cc-2n1` [Compound 101, 2-(2-Fluoro-phenyl)-5-(4-trifluoromethoxy-benzyl)-5H-imidazo[4,5-d]pyridazine] gave a 50% effective concentration (EC50) of at least 50000 nM.
As to `CCCOc1ccc(-c2ccc(Cn3cc4nc(-c5cccc(F)c5F)nc-4cn3)nc2)c(C(F)(F)F)c1` [Compound 296, 2-(2,3-Difluoro-phenyl)-5-[5-(4-propoxy-2-trifluoromethyl-phenyl)-pyridin-2-ylmethyl]-5H-imidazo[4,5-d]pyridazine], a half-maximal response (EC50) required 23 nM.
The compound `COc1ccc(-c2ccc(Cn3cc4nc(-c5cccc(F)c5F)nc-4cn3)c(OCCCO)c2)c(C(F)(F)F)c1` [Compound 348, 3-{4-[2-(2,3-Difluoro-phenyl)-imidazo[4,5-d]pyridazin-5-ylmethyl]-4′-methoxy-2′-trifluoromethyl-biphenyl-3-yloxy}-propan-1-ol] displayed a concentration giving a half-maximal response (EC50) of 279 nM.
As for `CCCOc1ccc(-c2ccc(Cn3cc4nc(-c5cccc(F)c5F)nc-4cn3)cc2N)cc1` [Compound 357, 4-[2-(2,3-Difluoro-phenyl)-imidazo[4,5-d]pyridazin-5-ylmethyl]-4′-propoxy-biphenyl-2-ylamine], the EC50 was at least 50000 nM.
Consider `COc1ccc(-c2ccc(Cn3cc4nc(-c5cccc(F)c5F)nc-4cn3)c(OC)c2)c(C(F)(F)F)c1` [Compound 294, 2-(2,3-Difluoro-phenyl)-5-(3,4′-dimethoxy-2′-trifluoromethyl-biphenyl-4-ylmethyl)-5H-imidazo[4,5-d]pyridazine], for which the response was half-maximal at 473 nM (EC50).
As for `CCCOc1ccc(-c2ccc(Cn3cc4nc(-c5cccc(F)c5F)nc-4cn3)cn2)c(C(F)(F)F)c1` [Compound 333, 2-(2,3-Difluoro-phenyl)-5-[6-(4-propoxy-2-trifluoromethyl-phenyl)-pyridin-3-ylmethyl]-5H-imidazo[4,5-d]pyridazine], the figure is 10 nM.
As for `Fc1cc(C(F)(F)F)ccc1-c1ccc(Cn2cc3nc(-c4cccc(F)c4F)nc-3cn2)cc1` [Compound 230, 2-(2,3-Difluoro-phenyl)-5-(2′-fluoro-4′-trifluoromethyl-biphenyl-4-ylmethyl)-5H-imidazo[4,5-d]pyridazine], the figure is 3140 nM.
`CCCc1ccc(-c2ccc(Cn3cc4nc(-c5cccc(F)c5F)nc-4cn3)nn2)cc1` [Compound 220, 2-(2,3-Difluoro-phenyl)-5-[6-(4-propyl-phenyl)-pyridazin-3-ylmethyl]-5H-imidazo[4,5-d]pyridazine] returned a 50% effective concentration (EC50) of 520 nM.
For the compound `Fc1cccc(-c2nc3cnn(Cc4ccc(-c5ccc(C(F)(F)F)cc5)nc4)cc-3n2)c1F` [Compound 253, 2-(2,3-Difluoro-phenyl)-5-[6-(4-trifluoromethyl-phenyl)-pyridin-3-ylmethyl]-5H-imidazo[4,5-d]pyridazine], the EC50 is at least 50000 nM.
`CC(=O)COc1ccc(-c2ccc(Cn3cc4nc(-c5cccc(F)c5F)nc-4cn3)nn2)c(C(F)(F)F)c1` [Compound 318, 1-(4-{6-[2-(2,3-Difluoro-phenyl)-imidazo[4,5-d]pyridazin-5-ylmethyl]-pyridazin-3-yl}-3-trifluoromethyl-phenoxy)-propan-2-one] showed a 50% effective concentration (EC50) of 663 nM.
For `Cc1noc(-c2ccc(Cn3cc4nc(-c5cccc(F)c5F)nc-4cn3)cc2)n1` [Compound 313, 2-(2,3-Difluoro-phenyl)-5-[4-(3-methyl-[1,2,4]oxadiazol-5-yl)-benzyl]-5H-imidazo[4,5-d]pyridazine], the EC50 is at least 50000 nM.
As for `Fc1cccc(-c2nc3cnn(Cc4ccc(-c5ccc6c(c5)OCO6)nn4)cc-3n2)c1F` [Compound 219, 5-(6-Benzo[1,3]dioxol-5-yl-pyridazin-3-ylmethyl)-2-(2,3-difluoro-phenyl)-5H-imidazo[4,5-d]pyridazine], the figure is at least 50000 nM; as for `Fc1cccc(-c2nc3cnn(Cc4cccc(OC(F)(F)F)c4)cc-3n2)c1F` [Compound 300, 2-(2,3-Difluoro-phenyl)-5-(3-trifluoromethoxy-benzyl)-5H-imidazo[4,5-d]pyridazine], at least 50000 nM.
In turn, `COc1ccc(-c2ccc(Cn3cc4nc(-c5cccc(F)c5F)nc-4cn3)cc2)c(C(F)(F)F)c1` [Compound 241, 2-(2,3-Difluoro-phenyl)-5-(4′-methoxy-2′-trifluoromethyl-biphenyl-4-ylmethyl)-5H-imidazo[4,5-d]pyridazine] had an EC50 of 21 nM.
In turn, `Fc1cccc(-c2nc3cnn(CCCc4ccc(C(F)(F)F)cc4C(F)(F)F)cc-3n2)c1F` [Compound 270, 5-[3-(2,4-Bis-trifluoromethyl-phenyl)-propyl]-2-(2,3-difluoro-phenyl)-5H-imidazo[4,5-d]pyridazine] came in with an EC50 of 52500 nM.
For `COc1ccc(-c2ccc(Cn3cc4nc(-c5cccc(F)c5F)nc-4cn3)c[n+]2[O-])c(C(F)(F)F)c1` [Compound 338, 2-(2,3-Difluoro-phenyl)-5-[6-(4-methoxy-2-trifluoromethyl-phenyl)-1-oxy-pyridin-3-ylmethyl]-5H-imidazo[4,5-d]pyridazine], a half-maximal response (EC50) required 1300 nM.
The figure for `Nc1ccc(-c2ccc(Cn3cc4nc(-c5cccc(F)c5F)nc-4cn3)cn2)c(C(F)(F)F)c1` [Compound 364, 4-{5-[2-(2,3-Difluoro-phenyl)-imidazo[4,5-d]pyridazin-5-ylmethyl]-pyridin-2-yl}-3-trifluoromethyl-phenylamine] is at least 50000 nM; for `COc1ccc(-c2ccc(Cn3cc4nc(-c5cccc(F)c5F)nc-4cn3)cc2[N+](=O)[O-])c(C(F)(F)F)c1` [Compound 258, 2-(2,3-Difluoro-phenyl)-5-(4′-methoxy-2-nitro-2′-trifluoromethyl-biphenyl-4-ylmethyl)-5H-imidazo[4,5-d]pyridazine] it is 228 nM.
